Measurements: article PMC9248268 (Biochemical pharmacology, 2021)

How the values were obtained:
[1] = biological target: T1, recombinant human PTPRD phosphatase (Homo sapiens, UniProt P23468); assay: inhibition of pNPP hydrolysis by recombinant PTPRD phosphatase
T1 sequence (P23468 1357-1612 limits assumed): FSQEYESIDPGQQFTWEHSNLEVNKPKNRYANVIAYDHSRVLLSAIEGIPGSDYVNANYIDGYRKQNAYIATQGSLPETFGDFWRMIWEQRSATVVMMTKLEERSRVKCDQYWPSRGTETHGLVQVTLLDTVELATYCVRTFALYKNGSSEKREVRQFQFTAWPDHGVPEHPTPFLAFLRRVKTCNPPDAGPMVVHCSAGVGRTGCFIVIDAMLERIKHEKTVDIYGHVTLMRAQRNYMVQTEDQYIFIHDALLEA

[2] = biological target: T2, PTPN1 (PTP1B) phosphatase (Homo sapiens, UniProt P18031); assay: inhibition of pNPP hydrolysis by recombinant PTPN1; type: biochemical
T2 sequence (P18031 1-435): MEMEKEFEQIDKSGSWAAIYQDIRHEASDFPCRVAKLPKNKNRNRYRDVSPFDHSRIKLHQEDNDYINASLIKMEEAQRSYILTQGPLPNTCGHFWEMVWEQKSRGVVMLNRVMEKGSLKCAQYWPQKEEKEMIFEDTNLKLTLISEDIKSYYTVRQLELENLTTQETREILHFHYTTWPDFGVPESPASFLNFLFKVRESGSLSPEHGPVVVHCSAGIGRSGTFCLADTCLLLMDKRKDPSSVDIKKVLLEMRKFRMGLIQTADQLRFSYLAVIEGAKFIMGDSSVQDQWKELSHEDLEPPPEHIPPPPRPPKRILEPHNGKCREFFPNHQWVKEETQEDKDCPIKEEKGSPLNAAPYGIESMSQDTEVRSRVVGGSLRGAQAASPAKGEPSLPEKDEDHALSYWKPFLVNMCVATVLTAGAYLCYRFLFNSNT

[3] = system: other protein tyrosine phosphatases screened; assay: screen at other protein tyrosine phosphatases; type: biochemical
[4] = oral tolerability study in mice; parameters: species or system wildtype C57BL/6J or PTPRD knockout mice; details: mouse, in vivo
[5] = absorption study, plasma levels in rats; type: in vivo; details: male, Sprague Dawley, rat, 10 mg/kg
PTPRJ phosphatase = biological target: T3, PTPRJ phosphatase (Homo sapiens, UniProt Q12913); assay: inhibition of pNPP hydrolysis by recombinant PTPRJ phosphatase; type: biochemical
T3 sequence (Q12913 997-1337 limits assumed): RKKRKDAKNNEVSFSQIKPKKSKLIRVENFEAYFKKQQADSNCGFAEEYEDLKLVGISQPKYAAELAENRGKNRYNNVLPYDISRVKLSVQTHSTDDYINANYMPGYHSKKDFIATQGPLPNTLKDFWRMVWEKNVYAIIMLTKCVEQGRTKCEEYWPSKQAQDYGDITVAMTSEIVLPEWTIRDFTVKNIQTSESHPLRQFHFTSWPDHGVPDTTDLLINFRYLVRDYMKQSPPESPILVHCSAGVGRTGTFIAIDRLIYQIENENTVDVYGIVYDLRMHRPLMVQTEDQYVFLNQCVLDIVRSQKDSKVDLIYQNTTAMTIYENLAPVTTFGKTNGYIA

PTPRS phosphatase [6] = biological target: T4, PTPRS phosphatase (Homo sapiens, UniProt Q13332); assay: inhibition of pNPP hydrolysis by recombinant PTPRS phosphatase; type: biochemical; details: relative to 7-BIA
T4 sequence (Q13332 1393-1648 limits assumed): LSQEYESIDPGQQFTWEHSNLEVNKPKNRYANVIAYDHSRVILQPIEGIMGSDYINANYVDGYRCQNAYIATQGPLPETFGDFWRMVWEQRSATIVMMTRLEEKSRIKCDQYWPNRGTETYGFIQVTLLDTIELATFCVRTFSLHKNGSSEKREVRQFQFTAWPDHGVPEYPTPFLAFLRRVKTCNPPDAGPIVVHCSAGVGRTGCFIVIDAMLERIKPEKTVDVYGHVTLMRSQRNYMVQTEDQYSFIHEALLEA

PTPRF phosphatase [7] = assay: inhibition of pNPP hydrolysis by recombinant PTPRF phosphatase; type: biochemical; details: relative to 7-BIA
[8] = system: sites of action (and side effects) of most marketed drugs; assay: EUROFINS assays for sites of action of marketed drugs; details: read-out: EC50 at EUROFINS sites of action of marketed drugs; any of these sites
PTPRS phosphatase [9] = biological target: T4, PTPRS phosphatase; details: cited from earlier work
PTPRF phosphatase [10] = details: cited from earlier work
[11] = acute ascending doses or 2-week repeated doses up to 20 mg/kg; cited from earlier work
[12] = biological target: T1, recombinant human PTPRD phosphatase; details: cited from earlier work

## CCCCOc1cc2c(c(C=O)c1OCC)CC(O)OC2=O (centres unmarked) [compound 23]
[1]
  activity at PTPRD (in words): activity was lost

## CCCCOc1cc2c(c(C=O)c1OCCCC)CC(O)OC2=O (centres unmarked) [compound 24]
[1]
  activity at PTPRD (in words): activity was lost

## COc1c(OCc2ccc(Oc3ccccc3)cc2)cc2c(c1C=O)CC(O)OC2=O (centres unmarked) [compound 40, 3-Hydroxy-6-methoxy-1-oxo-7-((4-phenoxybenzyl)oxy)isochromane-5-carbaldehyde]
[2]
  potency in inhibiting PTPN1/PTP1B (in words): relatively high potency

## COc1cccc(COc2cc3c(c(C=O)c2OC)CC(O)OC3=O)c1 (centres unmarked) [compound 30, 3-Hydroxy-6-methoxy-7-((3-methoxybenzyl)oxy)-1-oxoisochromane-5-carbaldehyde]
[1]
  activity at PTPRD (in words): no improvement in PTPRD activity

## COc1c(OCC2CCCC2)cc2c(c1C=O)CC(O)OC2=O (centres unmarked) [compound 58, 7-Cyclopentylmethoxy-3-hydroxy-6-methoxy-1-oxo-isochroman-5-carbaldehyde]
[3]
  potency at other protein tyrosine phosphatases screened (in words): no substantial potency
[4]; 200 mg/kg
  weight lost: 1.3 g
[4]; 400 mg/kg
  weight lost: 3.4 g
[4]; 600 mg/kg
  weight lost: 1.1 g
[4]; 1000 mg/kg
  weight lost: 9 g
[5]
  half-life: ~50 min
[5]; ip
  concentration at 30 min: 577 ng/g
  concentration at 120 min: 10.3 ng/g
  concentration at 240 min: 1.84 ng/g
[5]; iv
  concentration at 5 min: 24600 ng/g
  concentration at 30 min: 92.6 ng/g
  concentration at 240 min: 1.03 ng/g
[5]; po
  concentration at 30 min: 82.4 ng/g
  concentration at 120 min: 24.2 ng/g
  concentration at 240 min: 4.62 ng/g
PTPRJ phosphatase; relative to 7-BIA
  greater selectivity for PTPRD vs PTPRJ than 7-BIA: 3.5 fold
PTPRS phosphatase [6]
  greater selectivity for PTPRD vs PTPRS than 7-BIA: 1.6 fold
[2]; relative to 7-BIA
  greater selectivity for PTPRD vs PTPN1/PTP1B than 7-BIA: 1.8 fold
PTPRF phosphatase [7]
  greater selectivity for PTPRD vs PTPRF than 7-BIA: 1.4 fold
[8]
  EC50: ≥ 100 µM

## CCCCOc1cc2c(=O)occc2c(C=O)c1OC [compound 22]
[1]
  activity at PTPRD (in words): activity was lost

## CCCCOc1cc2c(c(C=O)c1OC)CC(O)OC2=O (centres unmarked) [compound 1, 7-butoxy illudalic acid analog]
PTPRS phosphatase [9]
  activity at PTPRS phosphatase (in words): active
PTPRJ phosphatase
  potency at PTPRJ (in words): moderate potencies
PTPRF phosphatase [10]
  activity at PTPRF phosphatase (in words): active
[11]
  toxicities in mice (in words): no apparent toxicities
[12]
  activity at PTPRD phosphatase (in words): active
  potency of inhibition of PTPRD phosphatase dephosphorylation of p-NPP (in words): good potency

## COc1ccccc1COc1cc2c(c(C=O)c1OC)CC(O)OC2=O (centres unmarked) [compound 31]
[1]
  activity at PTPRD (in words): no improvement in PTPRD activity
